Several values for one entry are separate records, joined by “and”; a condition that tells them apart may be missing. Equal entries are not always repeated. Activity calls are given as the source filed them.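 Rule for the calls: active = compounds giving half or more protection of infected cells from virus-caused growth loss, again on retest; inactive = the rest.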 Where a SMILES comes first, the peptide text is derived from it.
Test system: CEM cells HIV-1 protection, formazan growth assay
Assay: NCI AIDS Antiviral Assay
Conditions: for IC50: measured here: growth of uninfected CEM cells
Method in brief: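 Protection of CEM cells against HIV-1 was scored from cell growth (soluble formazan) across five concentrations, with parallel uninfected cells. Lack of protection may reflect toxicity.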

| SMILES | EC50 [µM] | IC50 | outcome |
| --- | --- | --- | --- |
| COc1cccc2c1C(=O)c1c(O)c3c(c(O)c1C2=O)C[C@@](O)(/C(C)=N/NC(=O)c1ccccc1)C[C@@H]3OC1CC(N)C(O)C(C)O1 (stereo partly drawn) | > 50.1 | 0.0158 µM |  |
| CCCCCCCCCCNCCSSc1ccccc1 | > 200 | 4.27 µM |  |
| COc1cnc2cc3c4c(cccc4c2c1)NC3=O | > 100 | 3.98 µM |  |
| Cc1sc2c(c1C)/C(=N\O)c1cccn1-2 | > 200 | 41.7 µM |  |
| Cc1ccc(Cc2n[nH]c(=O)n2N2C(=O)c3ccccc3C2=O)cc1 | > 200 | > 200 µM |  |
| CCCSc1nc(COC(=O)NC)c(COC(=O)NC)n1C | > 200 | 83.2 µM |  |
| CCOC(=O)C1C(c2ccc(OC)cc2)c2c([nH]n(-c3ccccc3)c2=O)CC1(O)OCC (stereo not drawn) | > 200 | 9.12 µM |  |
| OC(C#CCN1CCCC1)(c1ccccc1)c1ccccc1Cl.[C-]#[O+].[C-]#[O+].[C-]#[O+].[C-]#[O+].[C-]#[O+].[C-]#[O+].[Co].[Co] (stereo not drawn) | > 200 | 5.25 µM |  |
| CCOC(=O)/C(Cc1cc[n+]([O-])cc1)=N/O |  |  | inactive |
| CCC(/C(=N/NC(=O)C[N+](C)(C)C)c1ccccc1)C1OC(=O)c2ccccc21 (stereo not drawn) | > 575 | > 575 µM |  |
| C[Si](C)(C)/C=C\CCNC=O | > 1450 | > 1450 µM |  |
| Cn1c(=O)c(=O)n(C)c2cc(Cl)c(Cl)cc21 | > 200 | > 200 µM |  |
| C=CCN1/C(=C2\SC(=S)N(c3ccc(C)cc3)C2=O)Sc2c1nc[nH]c2=O | > 2.51 | > 2.51 µM |  |
| CCOC(=O)Cc1csc(N=Nc2c(O)[nH]c3ccccc23)n1 | > 200 | 110 µM |  |
| Cc1n[nH]c(=O)n1/N=C\CC/C=N\n1c(C)n[nH]c1=O | > 200 | > 200 µM |  |
| CC(=O)Oc1c2c(c(OC(C)=O)c3c1n(C(C)=O)c1ccccc1n3C(C)=O)n(C(C)=O)c1ccccc1n2C(C)=O | > 33.1 | 5.89 µM |  |
| O=C(Nc1ccccc1)c1nn(-c2cc(S(=O)(=O)O)c([N+](=O)[O-])cc2Cl)[n+](-c2cc(S(=O)(=O)[O-])c([N+](=O)[O-])cc2Cl)n1 | 64.6 | > 100 µM |  |
| COc1ccccc1NC(=O)C1=C(C)NC(C)=C(C(=O)Nc2ccccc2OC)C1c1ccc(C2C(C(=O)Nc3ccccc3OC)=C(C)NC(C)=C2C(=O)Nc2ccccc2OC)cc1 | > 1.62 | > 1.62 µM |  |
| CCCCN(CCCC)c1ccc(/C=C2/C=Cc3ccccc32)cc1 | > 11.2 | > 11.2 µM |  |
| CCOCC(C)(CO)CC(C)CO (stereo not drawn) | > 200 | > 200 µM |  |
| O/N=C/c1cc(I)cc(I)c1O | > 66.1 | 33.9 µM |  |

| SMILES | EC50 [µM] | IC50 | outcome |
| --- | --- | --- | --- |
| Fc1ccccc1C1SCc2nc3cc4ccccc4cc3n21 (stereo not drawn) | > 200 | 75.9 µM |  |
| CN(C)C12CCCCC1S(=O)(=O)C2 (stereo not drawn) | > 891 | > 891 µM |  |
| Nc1nc(SSc2nc(N)nc3c2ncn3C2CC(O)C(CO)O2)c2ncn(C3CC(O)C(CO)O3)c2n1 (stereo not drawn) | > 200 | 9.33 µM |  |
| O=C(c1cccc(C(=O)c2ccc3c4c(cccc24)C(=O)N(c2ccccc2)C3=O)c1)c1ccc2c3c(cccc13)C(=O)N(c1ccccc1)C2=O | > 200 | > 200 µM |  |
| COc1cc(/C=C2/C(=O)N=C(NC(C)=O)N2C)ccc1OC(C)=O | > 200 | > 200 µM |  |
| [N-]=[N+]=NC12CC3CC(CC(C3)C1)C2 | > 380 | > 380 µM |  |
| O=C(Nc1ccc2oc(=O)c(C(=O)O)cc2c1)Oc1ccccc1 | > 282 | > 282 µM |  |
| CCCCN(CC)C(=O)C(=O)C1C(=O)Nc2ccccc2S1=O (stereo not drawn) | > 204 | > 204 µM |  |
| O=C(O)C1SCCS1 | > 200 | > 200 µM |  |
| NC(=O)Cc1ncn(-c2ccccc2)n1 | > 200 | > 200 µM |  |
| N#CC(=C1CCN(Cc2ccccc2)CC1)c1ccccc1 | > 200 | 81.3 µM |  |
| O=C(O)c1ccc(NNC(=O)c2cccc3c(=O)c4ccccc4[nH]c23)cc1 | > 200 | 74.1 µM |  |
| CCCCn1c(-c2ccccc2)cs/c1=N\NC(=O)Cn1c(C)nc2ccccc21 | > 85.1 | 34.7 µM |  |
| COc1cc(OC)c2nc(C)c3c(c2c1)SCC3 | > 200 | > 200 µM |  |
| CCOP(=O)(OCC)[C@]12C[C@@H](C)C=C[C@H]1COC2=O | > 200 | 135 µM |  |
| COc1cc2c(cc1OC)NC(=O)CC(=O)N2 | > 200 | > 200 µM |  |
| c1ccc2c(c1)N[C@@H]1c3[nH]c4ccccc4c3CC[C@H]21 | > 200 | 24.5 µM |  |
| O=C1NC(Cc2ccccc2)C(=O)N2CCCC12 (stereo not drawn) | > 1020 | > 1020 µM |  |
| COc1ccc(C2C3=C(CCCC3=O)N(c3ccccc3)C3=C2C(=O)CCC3)cc1 | > 200 | > 200 µM |  |
| Cc1nc2c(Br)cc(Br)cc2c(=O)n1-c1ccccc1NC1OC(CO)C(O)C(O)C1O (stereo not drawn) | > 200 | > 200 µM and 105 µM |  |
| Clc1cc2n[se]nc2cc1Cl |  |  | inactive |

| SMILES | EC50 [µM] | IC50 | outcome |
| --- | --- | --- | --- |
| CC(NC(=O)OC(C)(C)C)C(=O)NC(Cc1ccccc1)C(=O)NCC(=O)Oc1c(Cl)c(Cl)c(Cl)c(Cl)c1Cl (stereo not drawn) | > 200 | 4.27 µM |  |
| CN(C)C(=O)OCOP(=O)(OCOC(=O)N(C)C)OCC1CCC(n2ccc(=O)[nH]c2=O)O1 (stereo not drawn) | > 200 | 93.3 µM |  |
| C[C@]12CCC(=O)C[C@H]1CCC(O)[C@@H]2Br (stereo partly drawn) |  |  | inactive |
| Cc1cc(Cl)c(O)c(C2(C(O)c3ccc(O)cc3)NC(=S)NC2=O)c1 (stereo not drawn) | > 200 | 107 µM |  |
| CC1(C)SC2c3ccccc3C(=O)N2C1C(=O)O (stereo not drawn) | > 955 | > 955 µM |  |
| Cc1cc(NS(=O)(=O)c2ccc(Nc3c4ccccc4nc4c(C(=O)O)cccc34)cc2)no1 | > 200 | 178 µM |  |
| Cl/C(N=Nc1ccccc1)=N/Nc1ccccc1 |  |  | inactive |
| OCC1(CO)CSSC1 | 132 | 1510 µM |  |
| Cc1c(CSCC(=O)O)c(O)c2c(=O)c3c(O)c(CSCC(=O)O)c(O)c4c5c(O)c(CSCC(=O)O)c(O)c6c(=O)c7c(O)c(CSCC(=O)O)c(C)c8c1c2c(c34)c(c78)c65 | > 26.9 | 1.12 µM |  |
| O=S1c2ccccc2SCSc2ccccc21 | > 200 | > 200 µM |  |
| CCC(C)C(NC(=O)C(NC(=O)C(CC(N)=O)NC(=O)CN)C(C)O)C(=O)NC(C(=O)NC(C)C(=O)NC(C(=O)NC(CCC(=O)O)C(=O)NC(CC(C)C)C(=O)NC(CC(=O)O)C(=O)NC(C(=O)NC(Cc1ccc(O)cc1)C(=O)N1CCCC1C(=O)O)C(C)O)C(C)C)C(C)C (stereo not drawn) (H-GNTIVAVELDTYP-OH; configuration not given here) | 30.9 | 50.1 µM |  |
| COc1ccc(C2[C@@H](Cl)C(=O)N2c2ccc(OC)cc2)cc1 (stereo partly drawn) |  |  | inactive |
| CC(/C(=N/NC(=O)C(N)=O)c1c(Cl)ccc(Cl)c1O)C1(O)C(=O)Nc2ccccc21 (stereo not drawn) | > 11.5 | > 11.5 µM |  |
| CCCCCCCCCCCCCCCCCC(=O)NCC(COP(=O)(O)O)OCC (stereo not drawn) | > 21.4 | > 21.4 µM |  |
| CC1CCCCc2nc3c(c(=O)n21)CCCC3 (stereo not drawn) | > 562 | 347 µM |  |
| [O-][N+](=Nc1ccccc1CO)c1ccccc1CO | 110 | > 200 µM |  |
| O=C(CCCC[n+]1ccccc1)Sc1ccccc1C(=O)NCc1ccc2c(c1)OCO2 | > 200 | 3.02 µM |  |
| Cc1cn(C2CC(N(O)Cc3ccccc3)C(CO[Si](C)(C)C(C)(C)C)O2)c(=O)[nH]c1=O (stereo not drawn) | > 200 | 12 µM and 36.3 µM |  |
| O=C1C(Cl)C(c2ccccc2O)N1n1cnc2ccccc2c1=O (stereo not drawn) | > 14.5 | > 14.5 µM |  |
| CCN(CC)CCOc1ccc(S(=O)(=O)c2ccc(OCCN(CC)CC)cc2)cc1 | > 200 | 39.8 µM |  |
| N#Cc1cccc(C(Br)S(=O)(=O)c2ccccc2)c1 (stereo not drawn) | > 77.6 | 72.4 µM |  |

| SMILES | EC50 [µM] | IC50 | outcome |
| --- | --- | --- | --- |
| CC(=O)C1=CSC2[C@H](NC(=O)Cc3ccccc3)C(=O)N2C1C(=O)OC(c1ccccc1)c1ccccc1 (stereo partly drawn) | > 25.7 | 15.8 µM |  |
| CSC1(Cc2ccccn2)C(=O)Nc2cccc([N+](=O)[O-])c21 (stereo not drawn) | > 200 | 31.6 µM |  |
| C1CSCC2(COC2)CSCCSCC2(COC2)CS1 | > 14.8 | > 14.8 µM |  |
| Cc1cn(C2CC3C(COC(=O)N3O)O2)c(=O)[nH]c1=O (stereo not drawn) | 50.1 | > 200 µM |  |
| COC(=O)c1cc2/c(=N/O)c3ccccc3sc2o1 | > 200 | > 200 µM |  |
| O=C1CCC23/C=C/C(=O)NCCCCNCCCNC(=O)/C=C/c4ccc(c2c4)OC3C1 (stereo not drawn) | > 148 | > 148 µM |  |
| COc1ccc(N/C=C/C2=[N+](C)c3ccccc3C2(C)C)c(OC)c1 | > 479 | 38.9 µM |  |
| Cc1nc2nnc(CCCCCCCCc3nnc4nc(C)[nH]n34)n2[nH]1 | 135 | 174 µM |  |
| N#CC1(C=O)c2ccccc2C=CN1C(=O)c1ccccc1 (stereo not drawn) | > 91.2 | > 91.2 µM |  |
| COc1ccc(/C=C/C(=O)c2c(-c3ccccc3)nn(C)c(=O)c2N2CCCCC2)cc1 | 15.8 | 19.1 µM |  |
| CC(C)NCC(O)c1cc(OCc2ccccc2)c(OCc2ccccc2)cc1NC(=O)CCC(=O)O (stereo not drawn) | > 200 | 1.58 µM |  |
| CC1(C#N)N(C(=O)c2ccccc2)c2ccccc2N1C(=O)c1ccccc1 |  |  | inactive |
| N[C@@H](CSS[C@H](C(=O)O)[C@@H](SSC[C@H](N)C(=O)O)C(=O)O)C(=O)O | > 200 | 35.5 µM |  |
| C[C@H]1[C@H](N2CCCC2)O[Si](C(C)(C)C)(C(C)(C)C)[C@@H]1C | > 200 | > 200 µM |  |
| COc1cc2c(cc1OCc1ccccc1)NC(=O)[C@@H]1CCCN1C2=O | > 200 | > 200 µM |  |
| CC(=O)Nc1ccc(/C=C2\SC(=S)N(/C=C(/C#N)S(=O)(=O)c3ccc(C)cc3)C2=O)cc1 | > 200 | 74.1 µM |  |
| O=C(NC(Cc1c[nH]c2ccccc12)C(=O)O)/C(=C/c1ccccc1O)NC(=O)c1ccccc1 (stereo not drawn) | > 200 | > 200 µM |  |
| O=C1OC(=O)C2=C1C(c1cccs1)C=C(c1cccnc1)N2c1ccncc1 (stereo not drawn) | > 200 | 9.77 µM |  |
| NC(=O)c1c(-c2ccccc2)c(-c2ccccc2)cc2c(=O)c3ccccc3[nH]c12 |  |  | inactive |
| COC1(OC)C2(Cl)C(Cl)=C(Cl)C1(Cl)C1c3ccc(C(C)=O)c4cccc(c34)C12 (stereo not drawn) |  |  | inactive |

Reference: PubChem BioAssay AID179 (DTP/NCI, 2004)
